Some targets named below: FYN (Homo sapiens, UniProt P06241); MAP4K5 (Homo sapiens, UniProt Q9Y4K4); RET (Homo sapiens, UniProt P07949); PLK2 (Homo sapiens, UniProt Q9NYY3); IRAK1 (Homo sapiens, UniProt P51617); ROCK2 (Homo sapiens, UniProt O75116); ABL2 (Homo sapiens, UniProt P42684); WNK2 (Homo sapiens, UniProt Q9Y3S1); CASK (Homo sapiens, UniProt O14936); MYLK2 (Homo sapiens, UniProt Q9H1R3); NEK7 (Homo sapiens, UniProt Q8TDX7); INSR (Homo sapiens, UniProt P06213); CSF1R (Homo sapiens, UniProt P07333); STK35 (Homo sapiens, UniProt Q8TDR2); SGK3 (Homo sapiens, UniProt Q96BR1); WEE2 (Homo sapiens, UniProt P0C1S8); MUSK (Homo sapiens, UniProt O15146); PRKX (Homo sapiens, UniProt P51817); PHKG1 (Homo sapiens, UniProt Q16816).

Holding throughout (assay): biochemical
Common to all, as to design: KINOMEscan active-site-directed competition binding panel, 468 kinases, percent of DMSO control at 1 uM
Holding throughout (conditions): KINOMEscan binding, percent of DMSO control; read-out: Ctrl%

For test [1], the target named is T1, RSK2(Kin.Dom.2-C-terminal) (Homo sapiens, UniProt P51812).
T1 construct: gene RPS6KA3; Kin.Dom.2-C-terminal

A further test deals with T2, AMPK-alpha1 (Homo sapiens, UniProt Q13131).
T2 construct: gene PRKAA1
T2 sequence (Q13131 whole entry): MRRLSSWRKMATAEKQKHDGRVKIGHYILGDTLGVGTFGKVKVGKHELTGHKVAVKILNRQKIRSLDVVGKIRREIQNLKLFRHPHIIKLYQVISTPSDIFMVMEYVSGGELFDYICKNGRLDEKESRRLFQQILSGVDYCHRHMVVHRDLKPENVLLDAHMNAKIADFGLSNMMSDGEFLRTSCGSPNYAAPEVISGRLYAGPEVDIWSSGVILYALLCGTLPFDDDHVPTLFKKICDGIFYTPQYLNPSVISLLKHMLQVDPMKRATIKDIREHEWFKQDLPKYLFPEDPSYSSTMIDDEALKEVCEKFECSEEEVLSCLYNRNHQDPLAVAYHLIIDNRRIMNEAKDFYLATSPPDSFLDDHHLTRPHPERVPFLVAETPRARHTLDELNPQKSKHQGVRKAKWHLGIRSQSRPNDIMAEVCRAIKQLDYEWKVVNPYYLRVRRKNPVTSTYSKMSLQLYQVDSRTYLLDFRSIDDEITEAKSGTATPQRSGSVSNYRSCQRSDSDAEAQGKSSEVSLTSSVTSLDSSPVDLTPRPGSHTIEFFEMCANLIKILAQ

Another test has as its target T3, CDK4-cyclinD1 (Homo sapiens, UniProt P11802).
T3 construct: cyclinD1

Test [2] concerns the target T4, RPS6KA4(Kin.Dom.1-N-terminal) (Homo sapiens, UniProt O75676).
T4 construct: Kin.Dom.1-N-terminal

For test [3], the target named is T5, TYK2(JH1domain-catalytic) (Homo sapiens, UniProt P29597).
T5 construct: JH1domain-catalytic

STK35, sequence (Q8TDR2 whole entry): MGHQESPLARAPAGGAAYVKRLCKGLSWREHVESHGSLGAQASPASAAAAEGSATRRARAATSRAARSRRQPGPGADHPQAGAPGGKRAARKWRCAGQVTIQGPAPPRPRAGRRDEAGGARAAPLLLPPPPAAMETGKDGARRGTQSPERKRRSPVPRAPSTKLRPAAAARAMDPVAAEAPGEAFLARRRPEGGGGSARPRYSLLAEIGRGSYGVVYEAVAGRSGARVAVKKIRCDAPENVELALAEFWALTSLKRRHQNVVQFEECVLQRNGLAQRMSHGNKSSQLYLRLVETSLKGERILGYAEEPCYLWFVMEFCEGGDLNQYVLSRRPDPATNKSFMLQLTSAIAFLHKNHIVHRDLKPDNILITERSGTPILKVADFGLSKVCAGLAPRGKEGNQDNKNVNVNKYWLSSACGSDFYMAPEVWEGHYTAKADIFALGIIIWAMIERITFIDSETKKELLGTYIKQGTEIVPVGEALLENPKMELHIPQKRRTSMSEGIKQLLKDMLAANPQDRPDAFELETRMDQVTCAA
ROCK2, sequence (O75116 whole entry): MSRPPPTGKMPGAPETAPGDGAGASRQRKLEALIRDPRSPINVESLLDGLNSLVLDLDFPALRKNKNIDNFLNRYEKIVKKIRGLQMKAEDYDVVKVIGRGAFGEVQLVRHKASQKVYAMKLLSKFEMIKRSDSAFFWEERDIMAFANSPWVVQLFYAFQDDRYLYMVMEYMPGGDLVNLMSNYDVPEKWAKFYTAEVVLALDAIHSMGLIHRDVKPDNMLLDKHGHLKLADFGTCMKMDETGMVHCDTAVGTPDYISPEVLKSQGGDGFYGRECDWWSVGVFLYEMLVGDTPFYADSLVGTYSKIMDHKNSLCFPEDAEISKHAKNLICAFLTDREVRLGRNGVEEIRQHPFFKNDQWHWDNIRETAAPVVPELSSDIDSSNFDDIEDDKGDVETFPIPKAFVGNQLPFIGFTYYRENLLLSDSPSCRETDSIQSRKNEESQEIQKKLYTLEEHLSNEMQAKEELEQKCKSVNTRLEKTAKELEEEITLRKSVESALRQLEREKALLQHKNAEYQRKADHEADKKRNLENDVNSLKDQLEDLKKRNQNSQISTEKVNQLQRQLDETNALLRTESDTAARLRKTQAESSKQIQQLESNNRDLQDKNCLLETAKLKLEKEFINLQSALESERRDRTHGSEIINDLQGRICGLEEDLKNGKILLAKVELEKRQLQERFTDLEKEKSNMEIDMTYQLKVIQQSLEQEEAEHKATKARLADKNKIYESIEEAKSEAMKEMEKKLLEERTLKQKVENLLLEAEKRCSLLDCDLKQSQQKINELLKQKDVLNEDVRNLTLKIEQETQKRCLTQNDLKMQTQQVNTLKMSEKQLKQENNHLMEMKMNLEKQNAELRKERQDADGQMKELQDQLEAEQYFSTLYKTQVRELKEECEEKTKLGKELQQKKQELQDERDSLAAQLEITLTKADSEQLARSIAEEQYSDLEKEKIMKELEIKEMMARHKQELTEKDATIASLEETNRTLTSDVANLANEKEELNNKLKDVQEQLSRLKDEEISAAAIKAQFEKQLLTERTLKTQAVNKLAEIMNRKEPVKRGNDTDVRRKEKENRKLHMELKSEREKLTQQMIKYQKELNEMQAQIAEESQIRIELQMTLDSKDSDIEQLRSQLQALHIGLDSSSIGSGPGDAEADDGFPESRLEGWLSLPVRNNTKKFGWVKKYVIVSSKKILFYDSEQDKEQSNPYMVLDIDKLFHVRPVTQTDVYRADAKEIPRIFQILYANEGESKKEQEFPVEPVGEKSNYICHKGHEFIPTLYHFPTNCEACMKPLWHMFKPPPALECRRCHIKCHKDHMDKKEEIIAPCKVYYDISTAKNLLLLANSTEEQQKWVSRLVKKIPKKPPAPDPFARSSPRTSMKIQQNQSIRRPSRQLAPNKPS
NEK7, sequence (Q8TDX7 whole entry): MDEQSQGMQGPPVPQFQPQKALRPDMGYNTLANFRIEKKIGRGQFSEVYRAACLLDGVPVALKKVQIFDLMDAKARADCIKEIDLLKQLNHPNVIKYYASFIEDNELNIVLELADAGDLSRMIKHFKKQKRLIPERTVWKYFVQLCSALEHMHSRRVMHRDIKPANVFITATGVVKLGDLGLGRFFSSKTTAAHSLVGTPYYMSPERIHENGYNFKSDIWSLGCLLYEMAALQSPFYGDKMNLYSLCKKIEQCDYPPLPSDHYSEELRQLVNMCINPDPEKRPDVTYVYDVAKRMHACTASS
T4 sequence (O75676 whole entry): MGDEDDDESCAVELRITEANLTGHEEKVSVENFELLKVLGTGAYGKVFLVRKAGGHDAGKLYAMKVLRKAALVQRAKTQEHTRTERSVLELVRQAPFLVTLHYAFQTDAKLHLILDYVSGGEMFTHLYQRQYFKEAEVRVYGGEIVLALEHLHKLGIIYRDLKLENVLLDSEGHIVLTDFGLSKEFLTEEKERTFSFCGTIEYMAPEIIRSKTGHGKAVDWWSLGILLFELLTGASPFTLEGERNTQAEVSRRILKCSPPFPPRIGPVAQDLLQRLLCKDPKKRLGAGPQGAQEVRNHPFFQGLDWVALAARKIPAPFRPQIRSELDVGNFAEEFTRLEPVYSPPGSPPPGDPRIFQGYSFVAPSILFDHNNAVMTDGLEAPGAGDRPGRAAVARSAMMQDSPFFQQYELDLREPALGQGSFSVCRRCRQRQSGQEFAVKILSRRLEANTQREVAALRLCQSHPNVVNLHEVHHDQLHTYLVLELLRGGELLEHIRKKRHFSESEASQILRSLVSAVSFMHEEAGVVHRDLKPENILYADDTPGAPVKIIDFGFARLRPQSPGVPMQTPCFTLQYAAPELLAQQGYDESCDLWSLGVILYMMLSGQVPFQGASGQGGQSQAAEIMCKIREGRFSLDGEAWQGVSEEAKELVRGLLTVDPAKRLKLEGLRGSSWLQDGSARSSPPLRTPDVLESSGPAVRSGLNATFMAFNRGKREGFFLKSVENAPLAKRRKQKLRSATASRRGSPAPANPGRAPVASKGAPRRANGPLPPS
MUSK, sequence (O15146 whole entry): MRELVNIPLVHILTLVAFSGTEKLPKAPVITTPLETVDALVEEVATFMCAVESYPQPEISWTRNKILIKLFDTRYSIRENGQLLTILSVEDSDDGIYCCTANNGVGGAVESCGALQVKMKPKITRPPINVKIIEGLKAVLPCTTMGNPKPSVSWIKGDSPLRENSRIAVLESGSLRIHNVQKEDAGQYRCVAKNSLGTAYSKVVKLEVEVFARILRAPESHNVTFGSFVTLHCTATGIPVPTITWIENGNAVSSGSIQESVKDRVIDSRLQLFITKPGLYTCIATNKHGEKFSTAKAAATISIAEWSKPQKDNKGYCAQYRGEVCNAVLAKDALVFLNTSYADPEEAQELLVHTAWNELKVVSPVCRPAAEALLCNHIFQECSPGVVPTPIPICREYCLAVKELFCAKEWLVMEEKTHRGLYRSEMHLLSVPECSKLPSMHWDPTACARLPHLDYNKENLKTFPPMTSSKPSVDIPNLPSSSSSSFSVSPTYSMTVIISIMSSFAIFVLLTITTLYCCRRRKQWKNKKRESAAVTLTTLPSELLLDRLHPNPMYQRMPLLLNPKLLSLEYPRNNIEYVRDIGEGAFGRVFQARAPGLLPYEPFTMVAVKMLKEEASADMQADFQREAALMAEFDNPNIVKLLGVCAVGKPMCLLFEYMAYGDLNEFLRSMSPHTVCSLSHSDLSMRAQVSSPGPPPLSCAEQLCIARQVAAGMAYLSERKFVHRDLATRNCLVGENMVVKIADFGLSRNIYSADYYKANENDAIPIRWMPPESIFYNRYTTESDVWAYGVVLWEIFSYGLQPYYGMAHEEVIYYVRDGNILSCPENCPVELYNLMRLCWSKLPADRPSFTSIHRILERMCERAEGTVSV
PHKG1, sequence (Q16816 whole entry): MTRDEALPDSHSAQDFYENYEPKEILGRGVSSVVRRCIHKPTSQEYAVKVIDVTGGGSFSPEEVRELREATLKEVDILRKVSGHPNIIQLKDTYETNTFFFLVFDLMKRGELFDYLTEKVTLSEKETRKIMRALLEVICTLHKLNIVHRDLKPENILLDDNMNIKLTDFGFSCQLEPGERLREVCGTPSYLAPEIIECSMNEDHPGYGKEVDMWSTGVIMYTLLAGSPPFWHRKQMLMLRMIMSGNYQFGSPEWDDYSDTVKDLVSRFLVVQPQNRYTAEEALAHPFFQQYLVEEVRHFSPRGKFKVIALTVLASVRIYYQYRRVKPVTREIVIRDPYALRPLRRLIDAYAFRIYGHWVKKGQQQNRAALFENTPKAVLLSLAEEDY

For `Cc1ccc(NC(=O)c2cccc(C(F)(F)F)c2)cc1Nc1cc(-c2cccnc2)nc2[nH]ccc12` [HZX-02-059], the remaining binding at 1 µM amounted to 85% on FYN; 100% in [1]; 97% on AMPK-alpha1; 98% at CDK4-cyclinD1; 73% on MAP4K5; 90% at RET. The remaining binding at 1 µM was 99% at PLK2; 100% on IRAK1; 100% at ROCK2; 26% at ABL2; 100% on WNK2; 92% on CASK. In addition, the remaining binding at 1 µM in test [2] came out at 93%; in [3] it was 100%; on MYLK2 it was 100%; at NEK7 it was 73%; at INSR, 100%; at CSF1R it was 6.1%. In addition, the remaining binding at 1 µM on STK35 came out at 80%; at SGK3, 100%; on WEE2, 100%; on MUSK it was 100%; at PRKX, 100%; at PHKG1 it was 97%.

For the origin of these results see article PMC8799717, “Pharmacological targeting PIKfyve and tubulin as an effective treatment strategy for double-hit lymphoma” (Cell Death Discovery, 2022).
